3 molecules from US11807627B2, “Morphic forms of complement factor D inhibitors” (priority 2018, dated 2023) can be followed below.

Read-outs that look alike come from different tables or passages of the source.

Type in all cases: physicochemical
Data set [1] in a line: Competitive slurries (Example 11). Here is the method:
About 10 mg of Form A, Form B and Form J were weighed separately and the solids were combined into one vial. An appropriate volume of selected solvent was then added to form a slurry. Slurries were then agitated under ambient or elevated temperatures for about 48 hours. Post agitation, solids were isolated using centrifuge filtration and XRPD analysis was collected. Table 23 below details selected solvent systems and volumes used.
Solvent was re-introduced (volumes as per Table 24) to the samples and the samples were agitated for a further 72 hours as no single polymorphic form was returned from the experiments after 48 hours agitation. Solids were isolated using centrifuge filtration and XRPD analysis was collected.
Samples were repeated in 2-propanol and 2-propanol/heptane (70/30% v/v) at 60° C. using the above procedure. Samples were agitated for 24 hours and solvent volumes can be found in Table 24 below. […] Isolation of single forms via competitive slurrying appeared to be solvent dependent, as Forms B and J were produced from acetone and acetonitirile, respsectively. […] Both Forms A and B could be isolated from competitive slurrying experiments from different solvent systems but neither was exclusively predominant at a specific temperature.
An additional competitive slurry experiment was conducted. Approximately 20 mg of Form A and Form B were weighed into separate vials. […]

Data set [2] can be described thus: Solubility in selected media (FaSSIF, FeSSIF, FaSSGF, pH 4 citrate, pH 6.8 phosphate). Here is the method:
Solubility within selected media (FaSSIF, FeSSIF, FaSSGF, pH 4 citrate and pH 6.8 phosphate) was measured to be <0.01 mg/mL.
The pH 4 citrate buffer was prepared by dissolving sodium citrate (987 mg) and citric acid (1.28 g) in 100 mL H2O. The pH was adjusted to 4. The pH 6.8 phosphate buffer was prepared by dissolving dibasic sodium phosphate dihydrate (873 mg) and monobasic sodium phosphate monohydrate (708 mg) in 100 mL H2O. The pH was adjusted to 6.8. The FaSSIF media was prepared with sodium hydroxide (108 mg), sodium chloride (1.55 g) and monobasic sodium phosphate dihydrate (1.12 g) in H2O (0.25 L) and the pH adjusted to 6.5. FaSSIF/FeSSIF/FaSSGF (0.56 g) was dissolved in the buffer and mixed until opalescent. The FeSSIF media was prepared by dissolving sodium hydroxide (1.01 g), sodium chloride (2.96 g) and glacial acetic acid (2.97 g) in H2O (0.25 L) and the pH adjusted to pH 5. FaSSIF/FeSSIF/FaSSGF (2.81 g) was dissolved in the buffer and thoroughly mixed. The FaSSGF media was prepared by dissolving FaSSIF/FeSSIF/FaSSGF (0.06 g) in a solution of sodium chloride (2.00 g) dissolved in H2O (1 L) and mixing thoroughly.

Data set [3] in a line: Hygroscopicity / dynamic vapour sorption (DVS). To be noted: for DVS: hygroscopicity: Table 27A. The protocol: (§1) Approximately, 10-20 mg of sample were placed into a mesh vapour sorption balance pan and loaded into a DVS Intrinsic dynamic vapour sorption balance by Surface Measurement Systems. The sample was subjected to a ramping profile from 40-90% relative humidity (RH) at 10% increments, maintaining the sample at each step until a stable weight had been achieved (dm/dt 0.004%, minimum step length 30 minutes, maximum step length 500 minutes) at 25° C. After completion of the sorption cycle, the sample was dried using the same procedure to 0% RH and then a second sorption cycle back to 40% RH. Two cycles were performed. The weight change during the sorption/desorption cycles were plotted, allowing for the hygroscopic nature of the sample to be determined. XRPD analysis was then carried out on any solid retained.
as §1, with “Approximately, 10” for “Approximately, 10-20”, “sample was” for “sample were”, “a DVS-1” for “a DVS Intrinsic”

Data set [4] can be described thus: Storage stability of Compound 3 forms (80° C., 40° C./75% RH, 25° C./60% RH, ambient). To be noted: for 1 week stability: 40° C./75% RH XRPD (uncapped): WC = weakly crystalline. Here is the method: No changes by XRPD or HPLC purity were observed when the material was stored at 40° C./75% RH, 80° C. or under ambient conditions.
Another data set is described as follows: Thermal stability by TGA. To be noted: for Thermal events from SSCI report: mass/weight loss: up to 250° C. The protocol: TG analyses were performed using a TA Instruments Q5000 IR thermogravimetric analyzer. Temperature calibration was performed using nickel and Alumel™. Each sample was placed in an aluminum pan. The sample was hermetically sealed, the lid pierced, then inserted into the TG furnace. The furnace was heated under nitrogen. The method code on the thermogram is an abbreviation for the start and end temperature as well as the heating rate; e.g., […] means “from 25° C. to 350° C., at 10° C./min”.

Regarding `CC(=O)c1nn(CC(=O)N2[C@H](C(=O)Nc3nc(Br)ccc3C)C[C@@]3(C)C[C@@H]23)c2ccc(-c3cnc(C)nc3)cc12` [Compound 3 Form A], the “Relative stability in competitive slurry” value in data set [1] (Form A, Form B and Form J, conversion of Form B to Form A in acetone over 72 hours) is on record as “may be the most stable form”. Besides, the “XRPD Results after stirring in media” value in data set [2] (FaSSGF), in data set [2] (FaSSIF), in data set [2] (FeSSIF), in data set [2] (pH 4 citrate buffer) and in data set [2] (pH 6.8 phosphate buffer) was “Form A” throughout. Moreover, the solubility (commonly the dissolved amount per volume that the medium holds) in data set [2] (FaSSGF) is less than 10 µg/mL; in data set [2] (FaSSGF, fassgf or other biorelevant, thermodynamic from solid, read-out: Solubility: HPLC Result), less than 10 µg/mL; in data set [2] (FaSSIF), less than 10 µg/mL; in data set [2] (FaSSIF, pH 6.5, fassif, thermodynamic from solid, read-out: Solubility: HPLC Result), less than 10 µg/mL; in data set [2] (FeSSIF), less than 10 µg/mL; in data set [2] (FeSSIF, pH 5, fessif, thermodynamic from solid, read-out: Solubility: HPLC Result) it was less than 10 µg/mL. Besides, the solubility is less than 10 µg/mL in data set [2] (aqueous buffer, thermodynamic from solid, FaSSIF, FeSSIF, FaSSGF, pH 4 citrate and pH 6.8 phosphate, read-out: Solubility within selected media); less than 10 µg/mL in data set [2] (aqueous buffer, thermodynamic from solid, pH 6.8 phosphate buffer, read-out: Solubility: HPLC Result); “Not detected” in data set [2] (pH 4); less than 10 µg/mL in data set [2] (pH 6.8 phosphate buffer, pH 6.8, aqueous buffer, thermodynamic from solid, read-out: Solubility). The “Solubility: HPLC Result” value in data set [2] (pH 4 citrate buffer) is on record as “Not detected”. For the same molecule, the “DVS analysis: hygroscopic nature” value in data set [3] (25° C.) is “hygroscopic”. In addition, the “DVS: hygroscopicity” value in data set [3] was “Hygroscopic”. The DVS total uptake in data set [3] (at 90% RH, 25° C.) is given as 6.9%. The figures for the “DVS uptake as equivalents of water” value in data set [3] (at / up to 90% RH) and in data set [3] (between 50-60% RH) were 2.5 equiv. water and 1.0 equiv. water, respectively. In data set [3] (between 50-60% RH), this molecule had a DVS sharp uptake of 3.0%. Also, the “1 week stability: 40° C./75% RH HPLC (uncapped)” value in data set [4] (1 week) was 99.7% (by % (by relative area). For the same molecule, in data set [4] (1 week), the “1 week stability: 80° C. HPLC (capped)” value is recorded as 99.7% (by % (by relative area). Further, the “1 week stability: 80° C. XRPD (capped)” value in data set [4] (1 week) was “Form A”. Moreover, in data set [4] (1 week), the “1 week stability: 40° C./75% RH XRPD (uncapped)” value was “WC Form A”. Moreover, the “Stability: form by XRPD after storage” value in data set [4] (25° C./60% RH, capped vial) is “Form A”; in data set [4] (40° C./75% RH (uncapped)), “predominantly Form A”. Also, the “Stability: purity change after storage” value in data set [4] (40° C./75% RH (uncapped)) is listed as “no purity change”. In data set [4] (40° C./75% RH, capped and uncapped vials), the “Stability: form by XRPD after storage (repeat study)” value is reported as “weakly crystalline (WC) Form A”. Further, the “Stability: purity by HPLC (relative area)” value in data set [4] (80° C.) is recorded as “no reduction in purity”. Further, the “Thermal events from SSCI report: mass/weight loss” value in “Thermal stability by TGA” is recorded as 0.8% mass loss.
On to `CC(=O)c1nn(CC(=O)N2[C@H](C(=O)Nc3nc(Br)ccc3C)C[C@@]3(C)C[C@@H]23)c2ccc(-c3cnc(C)nc3)cc12` [Compound 3, (1R,3S,5R)-2-(2-(3-acetyl-5-(2-methylpyrimidin-5-yl)-1H-indazol-1-yl)acetyl)-N-(6-bromo-3-methylpyridin-2-yl)-5-methyl-2-azabicyclo[3.1.0]hexane-3-carboxamide], for which the Hygroscopicity result in data set [3] is recorded as “Non-hygroscopic”. Moreover, in data set [3] (at 60% RH), the “Hygroscopicity: moisture uptake” value is less than 5%. Moreover, in the data set “Thermal stability by TGA” (to 250° C.), the “Thermal Stability by TGA” value is ~0.8% wt loss to 250 °C.
As for `CC(=O)c1nn(CC(=O)N2[C@H](C(=O)Nc3nc(Br)ccc3C)C[C@@]3(C)C[C@@H]23)c2ccc(-c3cnc(C)nc3)cc12` [Form B], the “Relative stability in competitive slurry” value in data set [1] (Form A and Form B in saturated Compound 3 solutions, ambient and elevated temperature, about 2 weeks) is reported as “likely the most thermodynamically stable form”. In data set [2] (FaSSGF), the solubility is less than 10 µg/mL. The solubility in data set [2] (FaSSIF) was less than 10 µg/mL. Besides, the solubility in data set [2] (FeSSIF) is less than 10 µg/mL. Besides, the “Solubility in selected media” value in data set [2] (pH 4, pH 6.8, FaSSIF, FeSSIF and FaSSGF media) is given as “poorly soluble”. For the same molecule, the “DVS analysis: hygroscopic nature” value in data set [3] (25° C.) is recorded as “slightly hygroscopic”. In addition, the “DVS: hygroscopicity” value in data set [3] is on record as “Slightly hygroscopic”. In data set [3] (at / up to 90% RH), the “DVS uptake as equivalents of water” value is 0.1 equiv. water. In data set [3] (up to 90% RH), the DVS uptake is 0.26 wt %. Moreover, in data set [4] (1 week), the “1 week stability: 40° C./75% RH HPLC (uncapped)” value is given as 99.8% (by % (by relative area), the “1 week stability: 80° C. HPLC (capped)” value is reported as 99.9% (by % (by relative area), the “1 week stability: 80° C. XRPD (capped)” value is on record as “Form B” and the “1 week stability: Ambient conditions HPLC (capped)” value is 99.8% (by % (by relative area). In data set [4] (1 week), the “1 week stability: Ambient conditions XRPD (capped)” value is “Form B” and the “1 week stability: 40° C./75% RH XRPD (uncapped)” value is “Form B”. For the same molecule, in data set [4] (stored at 40° C./75% RH, 80° C. or under ambient conditions), the “Stability: changes by XRPD or HPLC purity” value is reported as “No changes”. The “Thermal events from SSCI report: mass/weight loss” value in the data set “Thermal stability by TGA” is 1.3%.
